These results are taken from patent US20230190887A1, “TARGETING G3BP AGGREGATION TO PREVENT NEURODEGENERATION” (priority 2019, published 2023).

Entries after “also recorded” stand apart in the source; their conditions may differ.

For test [1], the system named is GFP^MYR/mCh^MYR translation reporters in DRG axons. The test is described as follows: FRAP of axonal translation reporters. The test is classed as cell-based, rat. Conditions: 10 μM peptide 30 min. The procedure:
Fluorescence recovery after photobleaching (FRAP). FRAP was used to test for axonal mRNA protein synthesis using diffusion-limited GFP^MYR and mCherry^MYR reporters as described with minor modifications. In each case, DRG neurons were co-transfected with GFP^MYR 5′/3′nrn1+mCherry^MYR 5′/3′gap43 or GFP^MYR 5′/3′impβ1+mCherry^MYR5′/3′gap43 so that recovery of both reporters could be analyzed simultaneously. Cells were maintained at 37° C., 5% CO2 during imaging sequences. 488 nm and 514 nm laser lines on Leica SP8X confocal microscope were used to bleach GFP and mCherry signals, respectively (Argon laser at 70% power, pulsed every 0.82 s for 80 frames). Pinhole was set to 3 Airy units to ensure full thickness bleaching and acquisition (63×/1.4 NA oil immersion objective). Prior to photobleaching, neurons were imaged every 60 s for 2 min to acquire baseline fluorescence the region of interest (ROI; 15% laser power, 498-530 nm for GFP and 565-597 nm for mCherry emissions, respectively). The same excitation and emission parameters were used to assess recovery over 15 min post-bleach with images acquired at 30 s intervals. To determine if fluorescence recovery in axons was from translation, cultures were treated with 150 μg/ml cycloheximide (Sigma) or 100 μm anisomycin (Sigma) for 30 min prior to photobleaching for GFP^MYR 5′/3′nrn1+mCherry^MYR 5′/3′gap43 and GFP^MYR 5′/3′impβ1+mCh^MYR 5′/3′gap43 transfected DRGs, respectively. […] Photobleaching followed by analyses of recovery was performed after 30 min of peptide exposure.
For normalizing across experiments, fluorescence intensity value at t=0 min postbleach from each image sequence was set as 0%. The percentage of fluorescence recovery at each time point after photobleaching was then calculated by normalizing relative to the pre-bleach fluorescence intensity (set at 100%).

Test [2] deals with G3BP1-mCherry aggregates in DRG axons. As to the kind of experiment: Live cell imaging of G3BP1-mCherry granules. Type of test: cell-based, rat. The note with it: 10 μM peptide, 15 min. The procedure:
Live cell imaging for G3BP1-mCherry granules. DRG neurons were transfected with G3BP1-mCherry, and 36 h later distal axons were imaged using Leica SP8X confocal microscope with environmental chamber maintained at 37° C., 5% CO2 (with 63×/1.4 NA oil immersion objective). G3BP1-mCherry signals were imaged as single optical planes in the axon shaft every 2 s for 100 frames (at 540 nm excitation and 23% white light laser power; 565-597 nm emission). To study the effect of the G3BP1 190-208 or 168-189 peptide, 10 μM FITC-conjugated peptide was added to the media and 15 min later imaging was continued.
For quantitation of G3BP1-mCherry aggregates density and size, a 100 μm of the axon shaft was considered (≥200 μm from cell body). Thresholding was applied to acquired image sequences using ImageJ to generate binary masks.
ImageJ particle analyzer was used for analysis. G3BP1 aggregates with area≥1 μm^2 were considered as SG-like structures. For analyzing the G3BP1 aggregate velocity, ImageJ Trackmate plug-in was used.

The test system of a further test is E18 cortical neurons. The test is described as follows: Axon growth of cortical neurons in microfluidic devices. The test is classed as cell-based, rat. The note with it: 10 μM peptide applied to axonal compartment at 3 DIV, assessed at 6 DIV. The protocol:
For cortical neuron cultures, E18 cortices were dissected in Hibernate E (BrainBits) and dissociated using the Neural Tissue Dissociation kit (Miltenyi Biotec). For this, minced cortices were incubated in a pre-warmed enzyme mix at 37° C. for 15 min; tissues were then triturated and applied to a 40 μm cell strainer.
After washing and centrifugation, neurons were seeded at a density of 1×10^5 cells per poly-D-lysine-coated microfluidic device (Xona Microfluidics). NbActive-1 medium (BrainBits) supplemented with 100 U/ml of Penicillin-Streptomycin (Life Technologies), 2 mM L-glutamine (Life Technologies), and 1×N21 supplement (R&D Systems) was used as culture medium.
(§1) For peptide treatments, 10 μM Tat-fused peptides were added to dissociated DRG cultures at 2 or 12 h after plating. Neurite outgrowth was assessed 24 h after addition of peptides. For the cortical cultures, 10 μM peptide was applied to the axonal compartment at 3 d in vitro (DIV) and axonal growth was assessed at 6 DIV. For iMotor neurons, 20 μM peptides were immediately added and neurite growth was assessed 24 h later.

Test [3] relates to motor neurons generated from human induced pluripotent stem cells. As to the kind of experiment: Neurite growth of hiPSC-derived motor neurons. Conditions: 20 μM peptide, assessed 24 h later. The test is classed as cell-based. The protocol:
Human induced pluripotent stem cells (hiPSCs) were maintained in dishes coated with Matrigel (Corning) in Flex8 media (ThermoFisher). hiPSCs were differentiated into human motor neurons using a directed differentiation protocol optimized by Kevin Eggan. 7000 neurons/well were plated on laminin—or CSPG coated 96 well plates. 100 μl at 10 μg/ml Laminin (ThermoFisher) and 25 ng CSPGs (Millipore) were used per well.
as §1
For neurite outgrowth, images from 60 h DRG cultures were analyzed for neurite outgrowth using WIS-Neuromath. Axon morphology was visualized using GFP and/or NF immunofluorescence as described. Differentiated hiPSC neuron image acquisition and neurite length quantification was performed using Arrayscan XTI (Thermo Fisher).

Test [4] concerns TDPΔNLS MN-muscle co-cultures. As to the kind of experiment: Co-culture contraction analysis. Conditions: 20 μM G3BP1 peptides in NMJ compartment. The test is classed as cell-based, mouse. The protocol: Muscles in co-culture were kept in BA medium for 7 days. To aid NMJ formation, media in all compartments was then replaced to poor neurobasal (PNB) medium, which contained only 1% P/S and 1% Glutamax. Doxycycline was applied to TDP-43ΔNLS cultures only at the proximal MN compartment, in a concentration of 0.1 μg/mL, immediately after plating and throughout the entire experimental timeline. For TDPΔNLS recovery experiments (FIGS. 7-8), Doxycline was […] at the proximal MN compartment after 5 DIV, and the cultures were grown until 11 DIV. […] NMJ activity was assessed by quantifying the percent of innervated and contracting myocytes in co-culture as previously described36. Briefly, after 12 days in co-culture, phase-contrast time lapse image series were acquired at a frame rate of 25 frames-per-second (25 FPS) using a X20 air objective. During imaging, cultures were maintained in controlled temperature and CO2 environment. For obtaining contraction time traces, we used the “Time Series Analyzer V3” plugin for FIJI ImageJ V.2.0.0, and marked a region of interest on a small, high contrast and mobile region on the muscle, and then obtained the mean values for each time point.

Take “YGNKKNNNQNNN-VVEPEPEPEPEPEPEPVSE [G3BP1 190-208 peptide]”: in test [1] (G3BP1 overexpression (G3BP1-BFP)), the “axonal translation of GFP^MYR 5′/3′nrn1” value was “reversed the decrease in axonal translation; also recorded: increased”. Moreover, the “axonal translation of GFP^MYR 5′/3′impβ1” value in test [1] (G3BP1 overexpression) was “did not rescue the decline in axonal translation”. Moreover, in test [1] (control conditions), the “GFP^MYR 5′/3′impβ1 translation in axons” value was “lack of effect” and the “mCh^MYR 5′/3′gap43 translation in axons” value was “lack of effect”. In test [2], the “density of axonal G3BP1-mCherry aggregates along 100 μm axon” value was “striking decrease”, the “motility of remaining G3BP1-mCherry aggregates” value is reported as “greater motility” and the “size of G3BP1-mCherry aggregates (SG-like structures)” value is reported as “significantly smaller”. In addition, the axon growth result with E18 cortical neurons is “significant increase in axon growth”. In addition, the neurite length result in test [3] is reported as “significantly increased neurite length”. Also, in test [4], the “percent of innervated muscles that contract” value is reported as “reversed”.
